# In patent US9889135B2, “Companion diagnostic for CDK4 inhibitors” (Memorial Sloan-Kettering Cancer Center, priority 2013, dated 2018):
# Peptide text beside a SMILES is read from it. * marks the point of attachment. Cbz = O=C(OCc1ccccc1)*
# How the values were obtained:
# [1] = system: MDM2 in LS8817 and LS141 cells; test: MDM2 level after proteasome inhibition in PD0332991 treated cells; type: cell-based, human; conditions: 10 μM MG132 added to cells treated with PD0332991 for two days
# [2] = system: LS8817 cells; test: doxorubicin effect on LS8817 cells; type: cell-based, human
# [3] = system: WD/DDLS cell lines; test: annexin V staining (apoptosis); type: cell-based, human; conditions: nutlin-3a, forty-eight hours; LS8817, LS0082, LS8107 and LS7785-1
# Method: FIG. 1A-C. […] Mean percentage of BrdU incorporation or annexin V+/7-AAD− cells was calculated from three or more independent experiments. Error bars represent standard deviation (*p<0.05).
# (§1) FIG. 13A-B. Nutlin-3a induces apoptosis in all the liposarcoma cell lines. The indicated cell lines were treated with nutlin-3a or vehicle control and extracts were prepared for immunoblotting (A) or annexin V staining (B) forty-eight hours after treatment. Mean percentage of annexin V+/7-AAD− cells was calculated from three or more independent experiments. Error bars represent standard deviation (*p<0.05).
# Cells were stained with BrdU (20 μM for two hours) or annexin V as previously described (22, 48). […] was determined by staining with propidium iodine and FACS analyses (49).
# [4] = system: MDM2 and p21 in LS8817, LS0082, LS8107 and LS7785-1 cells; test: p53 targets by immunoblot after nutlin-3a; type: cell-based, human; conditions: forty-eight hours; all of the cell lines
# Method: as §1, with “The” for “FIG. 13A-B. Nutlin-3a induces apoptosis in all the liposarcoma cell lines. The”
# [5] = system: WD/DDLS cells; conditions: Ambrosini et al., 2007, Singer et al.; cited from earlier work
compound,measurement,setting,value
CC(C)C[C@@H](C=O)NC(=O)[C@H](CC(C)C)NC(=O)[C@H](CC(C)C)NC(=O)OCc1ccccc1 [MG132] (Cbz-Leu-Leu-Leu-aldehyde),MDM2 level after addition of MG132,[1],re-accumulation
COc1cccc2c1C(=O)c1c(O)c3c(c(O)c1C2=O)C[C@@](O)(C(=O)CO)C[C@@H]3O[C@H]1C[C@H](N)[C@H](O)[C@H](C)O1 [doxorubicin],MDM2 levels,[2],without a reduction
same,p53,[2],accumulation
same,senescence,[2],entry of the LS8817 cells into senescence
COc1ccc(C2=N[C@@H](c3ccc(Cl)cc3)[C@@H](c3ccc(Cl)cc3)N2C(=O)N2CCNC(=O)C2)c(OC(C)C)c1 [nutlin-3a],percentage of annexin V stained apoptotic cells,[3],increased
same,"p53 targets, MDM2 and p21",[4],increased
same,cell response to nutlin-3a,[5],"growth arrest, p53 accumulation and apoptosis"
